# In PubChem BioAssay AID504539 (Broad Institute, 2011):
# “And” between values parts separate entries of the source, which are not always exact repeats. Equal values may be shown once. The source made the active and inactive calls. The rule behind the calls is not given here.
# Experiments:
# [1] = prion protein 5' UTR mRNA inhibitors – cell-based, plate reader, cherry-picked samples, dose response (AID 504539); settings: Cell-based prion protein 5' UTR reporter, plate reader; at 5 µM (top of the series)
# [2] = system: Cell-based prion protein 5' UTR reporter, plate reader; experiment: as above
SMILES,"activity change, negative = inhibition [1]",AC50 [2]
CCc1ccc(/C=C2\SC(=S)N(CCCC(=O)Nc3ccccn3)C2=O)cc1,-23.5% (inactive),–
CCOc1ccc(C2=Nn3c(nnc3-c3ccccc3OC)SC2)cc1,-38.1% (inactive),–
Cn1nnc2cc(C(=O)NC3CCCCC3)ccc21,46.3% (inactive),–
N#Cc1cn(C2OC(CO)C(O)C2O)c2ncnc(N)c12 (centres undefined),-30.1% (inactive),–
O=C(NNC(=O)c1cccs1)c1ccco1,6.33% (inactive),–
Cc1ccc(S(=O)(=O)Nc2nc3ccccc3s2)cc1[N+](=O)[O-],25.2% (inactive),–
O=C(NN1C(=O)C2C3C=CC(C4CC34)C2C1=O)c1ccc(Br)cc1 (centres undefined),108% (inactive),–
Cc1ccc(C(=O)Nc2cc3ccccc3oc2=O)cc1,–,0.143 µM
Cn1cc(/C=N/n2cnc3scc(-c4ccc(Cl)cc4)c3c2=O)c2ccccc21,–,0.499 µM
CCCCCOC(=O)c1[nH]c2c(c1C)C(=O)CC(c1ccco1)C2 (centres undefined),–,0.226 µM
NC1=C(Cl)C(=O)c2ccc(S(N)(=O)=O)cc2C1=O,–,0.226 µM
Cc1cnc(NC(=O)c2ccc3c(c2)OCCO3)s1,–,0.159 µM
CCCS(=O)(=O)c1cnc(C2COc3ccccc3O2)nc1N (centres undefined),–,0.487 µM
CCOC(=O)c1c(C)[nH]c(C(=O)N/N=C/c2ccc(Br)cc2)c1C,–,0.378 µM
CCOc1ncccc1C(=O)N1CCN(c2cccc(C)c2C)CC1,–,0.517 µM
C/C(=N\NC(=O)c1n[nH]c2c1CCC2)c1cccs1,–,0.401 µM
Cc1ccc(NC(=O)c2cc3ccccc3oc2=O)cc1S(=O)(=O)N(C)C,–,< 0.038 µM
COC(=O)C1=C(C(=O)OC)SC2(S1)C(C(=O)OC)=C(C(=O)OC)Sc1c2ssc1=O,–,2.62 µM
NC(=S)c1cn(C2OC(CO)C(O)C2O)c2ncnc(N)c12 (centres undefined),–,1.81 µM
C[C@H]1CCC/C=C/[C@@H]2C[C@H](O)C[C@H]2[C@H](O)/C=C/C(=O)O1,–,0.072 µM and 0.051 µM
CN1CCN(c2ccc(-c3ccc4ccccc4n3)cc2)CC1,–,0.113 µM
CC1CCCN(c2ccc([N+](=O)[O-])cc2C(=O)c2ccccc2)C1 (centres undefined),–,1.67 µM
CC(=O)O[C@H]1C(=O)[C@@]2(C)[C@H]([C@H](OC(=O)c3ccccc3)[C@]3(O)C[C@H](OC(=O)[C@H](O)[C@@H](NC(=O)c4ccccc4)c4ccccc4)C(C)=C1C3(C)C)[C@]1(OC(C)=O)CO[C@@H]1C[C@@H]2O,–,0.227 µM
CN(C)CCN1C(=O)c2cccc3cc([N+](=O)[O-])cc(c23)C1=O,–,0.433 µM
CC(=O)OCC12CC(OC(=O)CC(C)C)C(C)=CC1OC1C(O)C(OC(C)=O)C2(C)C12CO2 (centres undefined),–,< 0.038 µM
CCOC(=O)C(C)Oc1cccc2c(=O)n(CC(=O)NCc3ccc(F)cc3)ccc12 (centres undefined),–,0.486 µM
COc1ccc(Nc2nc(-c3c(C)nc4ncccn34)cs2)cc1,-31.6% (inactive),–
C=CCn1c(C)cc(C2=NNC(=NCC)SC2)c1C,–,< 0.038 µM
Nc1ncnc2c(C3OC(CO)C(O)C3O)scc12 (centres undefined),–,2.45 µM
